In patent US8454977B2, “Non-toxic biofilm inhibitor” (priority 2005, dated 2013):
Entries after “also recorded” stand apart in the source; their conditions may differ.

Columns and labels:
[1] = tested on: biotinylated viable PAKwt cells; assay type: cell-based, Pseudomonas aeruginosa
[2] = tested on: biotinylated purified PAK pili
P. aeruginosa strain PAK = test: Epifluorescence microscopy of cells bound to stainless steel, strain PAK; assay type: cell-based, Pseudomonas aeruginosa; details: PAK(128-144)ox 51 nM; PAK(134-140) 100 μg/ml; 60 min 37° C.
Experimental: (§1) FIG. 2. Epifluorescence microscopy of stainless steel after binding of P. aeruginosa strains PAK (panels a, b, and c), PAO (panels d, e, and f), K122-4 (panels g, h, and i), KB7 (panels j, k, and l), PAKNP (panels m, n, and o) and PAKMS591 (panels p, q, and r). Viable cells were allowed to incubate directly (panels a, d, g, j, m, and p) with a stainless steel grade 304 surface for 60 min at 37° C. and washed 5 times with 10 mM PBS pH 7.4 containing 0.05% BSA. The cells were then stained using acrydine orange and a 40× objective field was photographed with a Leitz Laborlux microscope equipped with epifluorescent illumination and a Wild automatic exposure 35 mm camera system. Note that bound Pseudomonas cells are stained orange while green fluorescence indicates non-specific interaction of the fluorochrome with the surface. P. aeruginosa strains PAK, PAO, K122-4, KB7, PAKNP, and PAKMS591 were incubated with the synthetic peptide PAK(128-144d)ox (panels b, e, h, k, n, and q respectively) or with synthetic peptide PAK(134-140) (panels c, f, i, l, o, and r respectively).
(§2) Stainless steel plates, prepared and utilized in bacterial binding studies as described above, were incubated in 1 mM Acridine Orange stain for one minute, and thoroughly rinsed with distilled water. […] Micrographs were recorded with Kodak Colormax 35 mm film, processed and digitally scanned immediately after film processing.

P. aeruginosa strain PAO = test: Epifluorescence microscopy of cells bound to stainless steel, strain PAO; assay type: cell-based, Pseudomonas aeruginosa; details: PAK(128-144)ox 51 nM; PAK(134-140) 100 μg/ml; 60 min 37° C.
Experimental: as §1, §2

[3] = tested on: P. aeruginosa strain K122-4; test: Epifluorescence microscopy of cells bound to stainless steel, strain K122-4; assay type: cell-based, Pseudomonas aeruginosa; details: PAK(128-144)ox 51 nM; PAK(134-140) 100 μg/ml; 60 min 37° C.
Experimental: as §1, §2

P. aeruginosa strain KB7 = test: Epifluorescence microscopy of cells bound to stainless steel, strain KB7; assay type: cell-based, Pseudomonas aeruginosa; details: PAK(128-144)ox 51 nM; PAK(134-140) 100 μg/ml; 60 min 37° C.
Experimental: as §1, §2

[4] = tested on: P. aeruginosa strain PAKMS591; test: Epifluorescence microscopy of cells bound to stainless steel, strain PAKMS591; assay type: cell-based, Pseudomonas aeruginosa; details: 60 min 37° C.
Experimental: as §1, §2

[5] = tested on: P. aeruginosa strain PAKNP; test: Epifluorescence microscopy of cells bound to stainless steel, strain PAKNP; assay type: cell-based, Pseudomonas aeruginosa; details: 60 min 37° C.
Experimental: as §1, §2

[6] = tested on: respiratory epithelial cells; details: Yu et al., 1996; cited from earlier work

Sequence of biotinylated purified PAK pili (P02973 7-150): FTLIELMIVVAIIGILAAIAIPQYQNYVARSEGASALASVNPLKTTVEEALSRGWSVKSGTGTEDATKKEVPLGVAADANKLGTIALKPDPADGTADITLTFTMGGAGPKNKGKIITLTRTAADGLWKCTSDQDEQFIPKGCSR

| Substance | effect of peptide on binding of biotinylated PAKwt cells to stainless steel [1] | effect of peptide on binding of biotinylated PAK pili to stainless steel [2] | Ki ([1]; read-out: apparent Ki of the peptide inhibition of PAKwt binding to steel) [nM] | effect on binding of strain PAK to stainless steel (microscopy) (P. aeruginosa strain PAK) | effect on binding of strain PAO to stainless steel (microscopy) (P. aeruginosa strain PAO) | effect on binding of strain K122-4 to stainless steel (microscopy) [3] | effect on binding of strain KB7 to stainless steel (microscopy) (P. aeruginosa strain KB7) | effect on binding of strain PAKMS591 (fliC-) to stainless steel (microscopy) [4] | effect on binding of strain PAKNP (pilA-) to stainless steel (microscopy) [5] | Ki ([2]; read-out: apparent Ki of the peptide inhibition of PAK pilus binding to steel) [nM] | affinity for epithelial cells / mucosal cell surface receptors [6] |
| --- | --- | --- | --- | --- | --- | --- | --- | --- | --- | --- | --- |
| Ac-T-L-T-R-T-A-A-D-G-OH (Ac-TLTRTAADG-OH) [PAK(117-125)] | appears to enhance cell binding to steel rather than inhibiting | appears to enhance the binding of pili to steel rather than inhibiting | – | – | – | – | – | – | – | – | – |
| Ac-KCTSDQDEQFIPKGCSK-OH (cysteine pairing not given here) [PAK(128-144)ox] | – | – | ~4 | reduced the binding | reduced the binding; also recorded: substantially inhibits; also recorded: effectively inhibits the adherence | reduced the binding; also recorded: substantially inhibits; also recorded: effectively inhibits the adherence | reduced the binding; also recorded: substantially inhibits; also recorded: effectively inhibits the adherence | reduced the binding; also recorded: inhibited the binding | did not reduce the binding; also recorded: had no effect | ~0.2 | – |
| Ac-D-E-Q-F-I-P-K-amide (Ac-DEQFIPK-NH2) [PAK(134-140)] | do not inhibit cell binding; also recorded: did not inhibit | – | – | did not inhibit the binding; also recorded: minimal effect | did not inhibit the binding; also recorded: minimal effect | did not inhibit the binding; also recorded: nor did it inhibit the binding; also recorded: minimal effect | did not inhibit the binding; also recorded: nor did it inhibit the binding; also recorded: minimal effect | did not inhibit the binding | did not inhibit the binding | – | low affinity |
| Ac-PQYQNYVARSEGASALASVNPLKTTVEEADP-OH [PAK(22-52)] | do not inhibit cell binding | do not inhibit the binding of pili | – | – | – | – | – | – | – | – | – |
